One may read the melting point as the temperature of the solid-liquid transition. The compound `O=c1[nH]c(NCCN2CCN(c3n[nH]c4ccccc34)CC2)nc2ccc(Cl)cc12` [Compound 1] displayed a melting point of 186 °C.

`O=c1[nH]c(NCCCN2CCC(O)(c3ccc(Cl)cc3)CC2)nc2ccccc12` [Compound 2]: the melting point is 178.4 °C.

(Values after US10150757B2, “Quinazolinone derivatives as PARP inhibitors” (Janssen Pharmaceutica NV, priority 2004, dated 2018).)
